Patent US8957093B2, “N-biphenylmethylindole modulators of PPARG” (The Scripps Research Institute, priority 2011, dated 2015)

Key:
[1] = system: PPARG (murine PPARg2 or full-length human PPARG, 3xPPRE-luciferase reporter); assay: Cell-based PPRE-luciferase transactivation assay in COS-1 cells; details: for EC50: PPRE-luciferase, COS-1 cells, NA = not active, read-out: EC50 (nM) PPRE; for PPRE transactivation (% in parentheses): rosiglitazone = 100%
Protocol: Cell-Based Transactivation Assay:
PPRE is a DNA that contains a binding site for PPARG; thus PPRE is a PPAR response element, used herein as a promoter reporter. The binding site is a DR1 response element with the sequence AGGTCA repeated 3 times in tandem and then fused to a construct for luciferase.
Thus, PPRE is the basis of the cell based transactivation assay described below. The plasmid DNA is co-transfected along with a plasmid for PPARG into COS-1 cells. After an overnight incubation, cells are treated with DMSO or compounds.
Confluent COS-1 cells were transfected with 4.5 μg murine PPARg2-pSV Sport or full-length human PPAR9-pSport6, 4.5 μg 3×PPRE-luciferase reporter and 27 μL X-treme Gene 9 transfection reagent in serum-free opti-mem media (Gibco), followed by overnight incubation at 37° C., 5% CO2. Transfected cells were plated in white Perkin Elmer 384-well plates and incubated 4 hours. […] After 18 hour incubation, treated cells were developed with Brite Lite Plus (Perkin Elmer) and read in 384-well Luminescence Perkin Elmer EnVision Multilabel plate reader. Graphs were plotted in triplicate in GraphPad Prism Software as fold change of treated cells over DMSO control cells.

GST-PPARG-LBD = GST-PPARG-LBD (Homo sapiens (Human), UniProt P37231); assay: Lanthascreen PPARG competitive binding assay (Invitrogen, TR-FRET); details: Lanthascreen competitive binding; NA = not active; inc = incomplete curve; read-out: IC50 (nM) Lantha
Chain of GST-PPARG-LBD (P37231 238-503): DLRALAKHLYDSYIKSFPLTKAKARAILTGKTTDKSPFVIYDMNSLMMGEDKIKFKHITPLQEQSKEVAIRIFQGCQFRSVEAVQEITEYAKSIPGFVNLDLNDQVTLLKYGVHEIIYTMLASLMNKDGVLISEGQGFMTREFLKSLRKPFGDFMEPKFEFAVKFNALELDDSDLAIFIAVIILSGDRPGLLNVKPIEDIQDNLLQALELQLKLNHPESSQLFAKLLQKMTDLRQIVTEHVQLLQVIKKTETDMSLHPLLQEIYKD
Outline: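 Values are fold change in 520 nm/490 nm FRET ratio relative to a 2% DMSO no-ligand control, excitation 340 nm. Compound dilutions starting at 10 μM competed against 5 nM Fluormone Pan-PPAR Green for GST-PPARG-LBD bound by 5 nM Tb anti-GST antibody. Incubation 2 h in the dark in assay buffer C, triplicate wells.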

Structure (SMILES) | EC50 [1] [nM] | PPRE transactivation (% in parentheses) [1] | IC50 (GST-PPARG-LBD) [nM]
Cc1c(C)n(Cc2ccc(-c3ccccc3C(=O)O)cc2)c2ccc(C(=O)NCc3ccc(F)cc3)cc12 [Example 76, 4′-((5-(4-fluorobenzylcarbamoyl)-2,3-dimethyl-1H-indol-1-yl)methyl)biphenyl-2-carboxylic acid] | 23 | (15%) | 5
Cc1c(C)n(Cc2ccc(-c3ccccc3C(=O)O)cc2)c2ccc(C(=O)NCc3ccc4c(c3)OCO4)cc12 [Example 78, 4′-((5-(benzo[d][1,3]dioxol-5-ylmethylcarbamoyl)-2,3-dimethyl-1H-indol-1-yl)methyl)biphenyl-2-carboxylic acid] | 1000 | (30%) | 33
Cc1c(C)n(Cc2ccc(-c3ccccc3C(=O)O)cc2)c2ccc(C(=O)N[C@@H](CO)c3ccccc3)cc12 [Example 79, (R)-4′-((5-(2-hydroxy-1-phenylethylcarbamoyl)-2,3-dimethyl-1H-indol-1-yl)methyl)biphenyl-2-carboxylic acid] | 297 | (25%) | 37
Cc1c(C)n(Cc2ccc(-c3ccccc3C(=O)O)cc2)c2ccc(C(=O)NCc3cccc(N)c3)cc12 [Example 80, 4′-((5-(3-aminobenzylcarbamoyl)-2,3-dimethyl-1H-indol-1-yl)methyl)biphenyl-2-carboxylic acid] | 2700 | (20%) | 13
Cc1ccc(CNC(=O)c2ccc3c(c2)c(C)c(C)n3Cc2ccc(-c3ccccc3C(=O)O)cc2)o1 [Example 84, 4′-((2,3-dimethyl-5-((5-methylfuran-2-yl)methylcarbamoyl)-1H-indol-1-yl)methyl)biphenyl-2-carboxylic acid] | 40 | (17%) | 12
Cc1c(C)n(Cc2ccc(-c3ccccc3C(=O)O)cc2)c2ccc(C(=O)NCCN3CCOCC3)cc12 [Example 85, 4′-((2,3-dimethyl-5-(2-morpholinoethylcarbamoyl)-1H-indol-1-yl)methyl)biphenyl-2-carboxylic acid] |  | (0%) | > 1000
Cc1c(C)n(Cc2ccc(-c3ccccc3C(=O)O)cc2)c2ccc(C(=O)NC3COc4ccccc4C3)cc12 (centres unmarked) [Example 86, 4′-((5-(chroman-3-ylcarbamoyl)-2,3-dimethyl-1H-indol-1-yl)methyl)biphenyl-2-carboxylic acid] |  | (0%) | 10
Cc1c(C)n(Cc2ccc(-c3ccccc3C(=O)O)cc2)c2ccc(C(=O)NCC3COc4ccccc4C3)cc12 (centres unmarked) [Example 87, 4′-((5-(chroman-3-ylmethylcarbamoyl)-2,3-dimethyl-1H-indol-1-yl)methyl)biphenyl-2-carboxylic acid] | 200 | (18%) | 17
Cc1c(C)n(Cc2ccc(-c3ccccc3C(=O)O)cc2)c2ccc(C(=O)NCC3COc4ccccc4O3)cc12 (centres unmarked) [Example 88, 4′-((5-((2,3-dihydrobenzo[b][1,4]dioxin-2-yl)methylcarbamoyl)-2,3-dimethyl-1H-indol-1-yl)methyl)biphenyl-2-carboxylic acid] | 170 | (17%) | 11
Cc1c(C)n(Cc2ccc(-c3ccccc3C(=O)O)cc2)c2ccc(C(=O)NC3CCCC3)cc12 [Example 90, 4′-((5-(cyclopentylcarbamoyl)-2,3-dimethyl-1H-indol-1-yl)methyl)biphenyl-2-carboxylic acid] | > 1000 | (18%) | 25
COCCNC(=O)c1ccc2c(c1)c(C)c(C)n2Cc1ccc(-c2ccccc2C(=O)O)cc1 [Example 92, 4′-((5-(2-methoxyethylcarbamoyl)-2,3-dimethyl-1H-indol-1-yl)methyl)biphenyl-2-carboxylic acid] | > 1000 | (9%) | 17
Cc1c(C)n(Cc2ccc(-c3ccccc3C(=O)O)cc2)c2ccc(C(=O)NCc3ccc(N)cc3)cc12 [Example 95, 4′-((5-(4-aminobenzylcarbamoyl)-2,3-dimethyl-1H-indol-1-yl)methyl)biphenyl-2-carboxylic acid] |  | (0%) | 4
Cc1c(C)n(Cc2ccc(-c3ccccc3C(=O)O)cc2)c2ccc(C(=O)NCc3cccc(C(F)(F)F)c3)cc12 [Example 100, 4′-((2,3-dimethyl-5-(3-(trifluoromethyl)benzylcarbamoyl)-1H-indol-1-yl)methyl)biphenyl-2-carboxylic acid] | 281 | (21%) | 191
Cc1c(C)n(Cc2ccc(-c3ccccc3C(=O)O)cc2)c2ccc(C(=O)NCc3ccc(-c4ccccc4)cc3)cc12 [Example 102, 4′-((5-(biphenyl-4-ylmethylcarbamoyl)-2,3-dimethyl-1H-indol-1-yl)methyl)biphenyl-2-carboxylic acid] | 1.2 | (29%) | 247
Cc1c(C)n(Cc2ccc(-c3ccccc3C(=O)O)cc2)c2ccc(C(=O)NCc3ccccc3Cl)cc12 [Example 108, 4′-((5-(2-chlorobenzylcarbamoyl)-2,3-dimethyl-1H-indol-1-yl)methyl)biphenyl-2-carboxylic acid] | 535 | (15%) | 6
Cc1c(C)n(Cc2ccc(-c3ccccc3C(=O)O)cc2)c2ccc(C(=O)NCc3cccc(Cl)c3)cc12 [Example 109, 4′-((5-(3-chlorobenzylcarbamoyl)-2,3-dimethyl-1H-indol-1-yl)methyl)biphenyl-2-carboxylic acid] | 12 | (21%) | 2
CCC[C@H](NC(=O)c1ccc2c(c1)c(C)c(C)n2Cc1ccc(-c2ccccc2C(=O)O)cc1)c1ccccc1 [Example 114, (S)-4′-((2,3-dimethyl-5-(1-phenylbutylcarbamoyl)-1H-indol-1-yl)methyl)biphenyl-2-carboxylic acid] | 8 | (14%) | 0.8
Cc1c(C)n(Cc2ccc(-c3ccccc3C(=O)O)cc2)c2ccc(C(=O)NC(C)c3cccc4ccccc34)cc12 (centres unmarked) [Example 116, 4′-((2,3-dimethyl-5-(1-(naphthalen-1-yl)ethylcarbamoyl)-1H-indol-1-yl)methyl)biphenyl-2-carboxylic acid] | 5 | (16%) | 2
Cc1c(C)n(Cc2ccc(-c3ccccc3C(=O)O)cc2)c2ccc(C(=O)NC(C)CCc3ccccc3)cc12 (centres unmarked) [Example 117, 4′-((2,3-dimethyl-5-(4-phenylbutan-2-ylcarbamoyl)-1H-indol-1-yl)methyl)biphenyl-2-carboxylic acid] | 3 | (17%) | 3
Cc1c(C)n(Cc2ccc(-c3ccccc3C(=O)O)cc2)c2ccc(C(=O)NCc3ccccc3Br)cc12 [Example 118, 4′-((5-((2-Bromobenzyl)carbamoyl)-2,3-dimethyl-1H-indol-1-yl)methyl)-[1,1′-biphenyl]-2-carboxylic acid] | 86 | (8%) | 17
C[C@H](NC(=O)c1ccc2c(ccn2Cc2ccc(-c3ccccc3C(=O)O)cc2)c1)c1ccc(Br)cc1 [Example 130, (S)-4′-((5-((1-(4-Bromophenyl)ethyl)carbamoyl)-1H-indol-1-yl)methyl)-[1,1′-biphenyl]-2-carboxylic acid] |  | (0%) | 163
CCC(NC(=O)c1ccc2c(ccn2Cc2ccc(-c3ccccc3C(=O)O)cc2)c1)c1ccccc1 (centres unmarked) [Example 131, 4′-((5-((1-Phenylpropyl)carbamoyl)-1H-indol-1-yl)methyl)-[1,1′-biphenyl]-2-carboxylic acid] | 6 | (20%) | 6
Cc1cc2cc(C(=O)N[C@@H](C)c3ccc(Br)cc3)ccc2n1Cc1ccc(-c2ccccc2C(=O)O)cc1 [Example 135, (S)-4′-((5-((1-(4-Bromophenyl)ethyl)carbamoyl)-2-methyl-1H-indol-1-yl)methyl)-[1,1′-biphenyl]-2-carboxylic acid] |  | (0%) | 80
Cc1c(C)n(Cc2ccc(-c3ccccc3C(=O)O)cc2)c2ccc(C(=O)N[C@@H]3COc4ccccc4C3)cc12 [Example 250, (S)-4′-((5-(chroman-3-ylcarbamoyl)-2,3-dimethyl-1H-indol-1-yl)methyl)-[1,1′-biphenyl]-2-carboxylic acid] |  | (0%) | 88
Cc1c(C)n(Cc2ccc(-c3ccccc3C(=O)O)cc2)c2ccc(C(=O)NCc3cccc(S(C)(=O)=O)c3)cc12 [compound 4, 4′-((2,3-Dimethyl-5-(3-(methylsulfonyl)benzylcarbamoyl)-1H-indol-1-yl)methyl)biphenyl-2-carboxylic acid] |  | (0%) | 230
